Values of other authors, collected in PubChem BioAssay AID1259409 (Chemical Carcinogenesis Research Information System (CCRIS), 2018).

Tested on: rodent chemically induced tumor inhibition, incidence and multiplicity
Assay: CCRIS tumor inhibitor studies

In the case of NC(=O)c1cccc(N)c1, the outcome (Carcinogen: N-NITROSOBIS(2-HYDROXYPROPYL)AMINE, 53609-64-6, Dose [Inhibitor]: 0, 300 MG/KG 30 MIN AFTER EACH CARCINOGEN DOSE (STUDY DURATION: 35 WK), Route [Inhibitor]: INTRAPERITONEAL, Species: HAMSTER, Strain/Sex: SYRIAN/MALE, Target Tissue: Type of Lesion: BILE DUCT: CHOLANGIOCARCINOMA, Dose [Carcinogen]: 500 MG/KG IN 0.9% SALINE 1/WK FOR 5 WK, Promoter: NONE USED) is listed as 0%, 7%, the outcome (Carcinogen: N-NITROSOBIS(2-HYDROXYPROPYL)AMINE, 53609-64-6, Dose [Inhibitor]: 0, 300 MG/KG 30 MIN AFTER EACH CARCINOGEN DOSE (STUDY DURATION: 35 WK), Route [Inhibitor]: INTRAPERITONEAL, Species: HAMSTER, Strain/Sex: SYRIAN/MALE, Target Tissue: Type of Lesion: LIVER: HEPATOCELLULAR CARCINOMA, Dose [Carcinogen]: 500 MG/KG IN 0.9% SALINE 1/WK FOR 5 WK, Promoter: NONE USED) is listed as 0%, 7% and the “tumour outcome (control, treated, inhibition, significance)” value (Carcinogen: N-NITROSOBIS(2-HYDROXYPROPYL)AMINE, 53609-64-6, Dose [Inhibitor]: 0, 300 MG/KG 30 MIN AFTER EACH CARCINOGEN DOSE (STUDY DURATION: 35 WK), Route [Inhibitor]: INTRAPERITONEAL, Species: HAMSTER, Strain/Sex: SYRIAN/MALE, Target Tissue: Type of Lesion: LUNG: ADENOCARCINOMA, Dose [Carcinogen]: 500 MG/KG IN 0.9% SALINE 1/WK FOR 5 WK, Promoter: NONE USED) is listed as 8%, 0%, 100%, not calculated. The outcome (Carcinogen: N-NITROSOBIS(2-HYDROXYPROPYL)AMINE, 53609-64-6, Dose [Inhibitor]: 0, 300 MG/KG 30 MIN AFTER EACH CARCINOGEN DOSE (STUDY DURATION: 35 WK), Route [Inhibitor]: INTRAPERITONEAL, Species: HAMSTER, Strain/Sex: SYRIAN/MALE, Target Tissue: Type of Lesion: LUNG: ADENOMA, Dose [Carcinogen]: 500 MG/KG IN 0.9% SALINE 1/WK FOR 5 WK, Promoter: NONE USED) was 0%, 7%, the “tumour outcome (control, treated, inhibition, significance)” value (Carcinogen: N-NITROSOBIS(2-HYDROXYPROPYL)AMINE, 53609-64-6, Dose [Inhibitor]: 0, 300 MG/KG 30 MIN AFTER EACH CARCINOGEN DOSE (STUDY DURATION: 35 WK), Route [Inhibitor]: INTRAPERITONEAL, Species: HAMSTER, Strain/Sex: SYRIAN/MALE, Target Tissue: Type of Lesion: PANCREAS: CARCINOMA, Dose [Carcinogen]: 500 MG/KG IN 0.9% SALINE 1/WK FOR 5 WK, Promoter: NONE USED) was 39%, 40%, -3%, not calculated and the outcome (Carcinogen: N-NITROSOBIS(2-HYDROXYPROPYL)AMINE, 53609-64-6, Dose [Inhibitor]: 0, 600 MG/KG 30 MIN AFTER EACH CARCINOGEN DOSE (STUDY DURATION: 35 WK), Route [Inhibitor]: INTRAPERITONEAL, Species: HAMSTER, Strain/Sex: SYRIAN/MALE, Target Tissue: Type of Lesion: LIVER: HEPATOCELLULAR CARCINOMA, Dose [Carcinogen]: 500 MG/KG IN 0.9% SALINE 1/WK FOR 5 WK, Promoter: NONE USED) was 0%, 5%. The “tumour outcome (control, treated, inhibition, significance)” value (Carcinogen: N-NITROSOBIS(2-HYDROXYPROPYL)AMINE, 53609-64-6, Dose [Inhibitor]: 0, 600 MG/KG 30 MIN AFTER EACH CARCINOGEN DOSE (STUDY DURATION: 35 WK), Route [Inhibitor]: INTRAPERITONEAL, Species: HAMSTER, Strain/Sex: SYRIAN/MALE, Target Tissue: Type of Lesion: LUNG: ADENOCARCINOMA, Dose [Carcinogen]: 500 MG/KG IN 0.9% SALINE 1/WK FOR 5 WK, Promoter: NONE USED) was 8%, 0%, 100%, not calculated, the outcome (Carcinogen: N-NITROSOBIS(2-HYDROXYPROPYL)AMINE, 53609-64-6, Dose [Inhibitor]: 0, 600 MG/KG 30 MIN AFTER EACH CARCINOGEN DOSE (STUDY DURATION: 35 WK), Route [Inhibitor]: INTRAPERITONEAL, Species: HAMSTER, Strain/Sex: SYRIAN/MALE, Target Tissue: Type of Lesion: LUNG: ADENOMA, Dose [Carcinogen]: 500 MG/KG IN 0.9% SALINE 1/WK FOR 5 WK, Promoter: NONE USED) was 0%, 5% and the “tumour outcome (control, treated, inhibition, significance)” value (Carcinogen: N-NITROSOBIS(2-HYDROXYPROPYL)AMINE, 53609-64-6, Dose [Inhibitor]: 0, 600 MG/KG 30 MIN AFTER EACH CARCINOGEN DOSE (STUDY DURATION: 35 WK), Route [Inhibitor]: INTRAPERITONEAL, Species: HAMSTER, Strain/Sex: SYRIAN/MALE, Target Tissue: Type of Lesion: PANCREAS: CARCINOMA, Dose [Carcinogen]: 500 MG/KG IN 0.9% SALINE 1/WK FOR 5 WK, Promoter: NONE USED) was 39%, 25%, 36%, not calculated.
In the case of C/C=C/C1=CC2=CC3=C(C(=O)CCCCCCC)C(=O)O[C@@]3(C)C(=O)C2=CO1, the “tumour outcome (control, treated, inhibition, significance)” value (Carcinogen: 7,12-DIMETHYLBENZ[A]ANTHRACENE, 57-97-6, Dose [Inhibitor]: 0, 2 UMOL 2/WK FOR 18 WK APPLIED 30 MIN PRIOR TO EACH PROMOTER DOSE BEGINNING 1 WK POST CARCINOGEN DOSE (STUDY DURATION:, Route [Inhibitor]: DERMAL, Species: MOUSE, Strain/Sex: ICR/FEMALE, Target Tissue: Type of Lesion: SKIN: PAPILLOMA, Dose [Carcinogen]: 50 UG ONCE, Promoter: 12-O-TETRADECANOYLPHORBOL-13-ACETATE, 16561-29-8) is listed as 100%, 7%, 93%, not calculated.
In the case of CCCCCCCCCCCCCCCC(=O)OC[C@@]1(O)C[C@@]23CC[C@@H]4c5ccoc5CC[C@@]4(C)[C@@H]2CC[C@@H]1C3, the “tumour outcome (control, treated, inhibition, significance)” value (Carcinogen: 7,12-DIMETHYLBENZ[A]ANTHRACENE, 57-97-6, Dose [Inhibitor]: 0, 60 MG 1/D FOR 3 D BEGINNING 3 D PRIOR TO CARCINOGEN DOSE (STUDY DURATION: 20 WK), Route [Inhibitor]: GAVAGE, Species: RAT, Strain/Sex: SPRAGUE-DAWLEY/FEMALE, Target Tissue: Type of Lesion: MAMMARY GLAND: TUMOR, Dose [Carcinogen]: 12 MG IN 1 ML OLIVE OIL ONCE, Promoter: NONE USED) is listed as 84%, 69%, 18%, not significant.
In the case of CC(C)=CCCC(C)CCO (stereo unspecified), the “tumour outcome (control, treated, inhibition, significance)” value (Carcinogen: AZOXYMETHANE, 25843-45-2, Dose [Inhibitor]: 0, 5 MG/G IN DIET FOR 22 WK BEGINNING 3 D POST LAST CARCINOGEN DOSE (STUDY DURATION: 25 WK), Route [Inhibitor]: ORAL, Species: RAT, Strain/Sex: F344/MALE, Target Tissue: Type of Lesion: DUODENUM: ADENOCARCINOMA, Dose [Carcinogen]: 15 MG/KG BW 2/WK FOR 3 WK, Promoter: NONE USED) is given as 50%, 26%, 48%, not significant and the “tumour outcome (control, treated, inhibition, significance)” value (Carcinogen: AZOXYMETHANE, 25843-45-2, Dose [Inhibitor]: 0, 5 MG/G IN DIET FOR 22 WK BEGINNING 3 D POST LAST CARCINOGEN DOSE (STUDY DURATION: 25 WK), Route [Inhibitor]: ORAL, Species: RAT, Strain/Sex: F344/MALE, Target Tissue: Type of Lesion: LARGE BOWEL: ADENOMATOUS POLYP, Dose [Carcinogen]: 15 MG/KG BW 2/WK FOR 3 WK, Promoter: NONE USED) is given as 82%, 69%, 16%, not significant.
In the case of S=C=NCCCCc1cccnc1, the “tumour outcome (control, treated, inhibition, significance)” value (Carcinogen: 4-(METHYLNITROSAMINO)-1-(3-PYRIDYL)-1-BUTANONE, 64091-91-4, Dose [Inhibitor]: 0, 0.2 UMOL 1/D FOR 4 D ADMINISTERED PRIOR TO CARCINOGEN TREATMENT (STUDY DURATION: 116 D), Route [Inhibitor]: GAVAGE, Species: MOUSE, Strain/Sex: STRAIN A, Target Tissue: Type of Lesion: LUNG: ADENOMA, Dose [Carcinogen]: 10 UMOL ONCE 2 HR AFTER FINAL DOSE OF INHIBITOR, Promoter: NONE USED) is given as 100%, 100%, 0%, not significant and the “tumour outcome (control, treated, inhibition, significance)” value (Carcinogen: 4-(METHYLNITROSAMINO)-1-(3-PYRIDYL)-1-BUTANONE, 64091-91-4, Dose [Inhibitor]: 0, 1 UMOL 1/D FOR 4 D ADMINISTERED PRIOR TO CARCINOGEN TREATMENT (STUDY DURATION: 116 D), Route [Inhibitor]: GAVAGE, Species: MOUSE, Strain/Sex: STRAIN A, Target Tissue: Type of Lesion: LUNG: ADENOMA, Dose [Carcinogen]: 10 UMOL ONCE 2 HR AFTER FINAL DOSE OF INHIBITOR, Promoter: NONE USED) is given as 100%, 100%, 0%, not significant.
In the case of N[C@@H](Cc1cc(I)c(Oc2cc(I)c(O)c(I)c2)c(I)c1)C(=O)O, the outcome (Carcinogen: N-METHYL-N-NITROSOUREA [684-93-5], Dose [Inhibitor]: 3 UG/ML IN DRINKING WATER, 2 WKS BEFORE CARCINOGEN AND FOR 26 WKS AFTER, Route [Inhibitor]: DRINKING WATER, Species: RAT, Strain/Sex: SPRAGUE-DAWLEY/FEMALE, Target Tissue: Type of Lesion: MAMMARY GLAND: CARCINOMA, Dose [Carcinogen]: 50 MG/KG BW ONCE AT 7 WKS OF AGE (IN SALINE SOLUTION)) is listed as 8/11 (73%) vs 9/11 (82%) at 16 wks.
